Results: patent US11154551B2, “HDAC1,2 inhibitors and methods of using the same” (UNIVERSITY OF UTAH RESEARCH FOUNDATION, priority 2014, dated 2021)
“Also recorded” adds a separate entry of the source.

What was measured:
[1] = system: Karpas-422 cells; experiment: propidium-iodide / BrdU-PI cell cycle analysis; assay type: cell-based, human; conditions: for progression through the cell cycle: 24 h; for progression through the cell cycle / cell cycle / sub-G1 (dead cells): 2 μM ACY-957, 0.5 μM DZNEP, 0.5 μM GSK126
Experimental: (§1) (B): Quantitation of the cell cycle data in (A), compiled from three independent analyses. The graphs plotted the average percentage of cells in each phase of the cell cycle. […] (C): FACS analysis following BrdU-PI staining of Karpas-422 and SUDHL4 cells was performed following a 48 h or 72 h treatment with ACY-957.
Cell cycle analysis of propidium-iodide stained cells was performed with fixed cells. […] (C): FACS analysis following BrdU-PI staining of Karpas-422 and SUDHL4 cells was performed following a treatment with 2 μM ACY-957, 50 nM doxorubicin or both for 48 h.
(§2) (B): Quantitation of the cell cycle analysis performed in (A). Data from three independent cell cycle analyses were compiled and average percentage cells with standard errors were shown in this panel.
(§3) Propidium-iodide Cell Cycle Analysis.
(§4) Since these DLBCL cells expressed a hyperactive form of EZH2, pharmacological inhibition of EZH2 activity was considered a therapeutic strategy. […] GSK126 was a S-adenosyl-methionine-competitive inhibitor of EZH2 methyltransferase activity, and DZNep was a S-adenosylhomocysteine hydrolase inhibitor that disrupted the components of the PRC2 complex, thereby causing reduced chromatin-associated EZH2 levels.
To test this possibility, cell cycle analysis following treatment of Karpas-422 with ACY-957, doxorubicin, or ACY-957 in combination with doxorubicin was performed.

[2] = system: SUDHL4 cells; experiment: propidium-iodide / BrdU-PI cell cycle analysis; assay type: cell-based, human; conditions: for progression through the cell cycle: 24 h; for progression through the cell cycle / cell cycle / G1 arrest and sub-G1: 2 μM ACY-957, 0.5 μM DZNEP, 0.5 μM GSK126; for cell cycle / G1 arrest and sub-G1: 72 h
Experimental: as §1, §2, §3, §4

[3] = system: Karpas-422 and SUDHL4 cells; experiment: Western blot of chromatin extracts for H3K27ac and H3K27me3; assay type: cell-based, human; conditions: 48 h, chromatin extracts
Experimental: Western blot analysis was done with anti-H3K27ac, H3K27me3 or EZH2 and histone H3 served as a loading control.
Following DMSO or ACY-957 treatment, cells were exposed to a 5Gy dose of ionizing radiation and allowed to recover for 30 minutes prior to chromatin extraction. Western blots were performed with anti-H3K27ac or anti-H3K27me3 with histone H3 serving as a loading control. (B-E): Karpas-422, SUDHL4, WSU-DLCL2 and HeLa cells were laser micro-irradiated and allowed to recover for 15 minutes before fixation and immunofluorescence staining with anti-γH2AX and anti-H3K27me3. Subsequently, the percentage of cells with H3K27me3 lines that co-localized with γH2AX were counted. Merge is the overlay of γH2AX and H3K27me3 pictures. (F-I): At least 100 cells with γH2AX lines were counted in each experiment. The quantitation shown was the average calculated from independent experiments+/−standard error. Quantitation from five, seven, five and six independent experiments performed in Karpas-422, SUDHL4, WSU-DLCL2 and HeLa cells, respectively, was used in the graph shown in this figure. (J): Karpas-422 cells were micro-irradiated with a laser and allowed to recover for 15 minutes before fixation and immunofluorescence staining was performed with anti-γH2AX and anti-H3K27ac.
Protein Preparation and Western Blot Analysis.
The histone H3K27 residue was subjected to reversible acetylation and methylation. […] We also treated cells with the second EZH2 inhibitor, GSK126 alone, or combined with ACY-957 (ACY-957+GSK126). […] Cells were treated for 48 h prior to preparing chromatin extracts for Western analysis using antibodies recognizing H3K27ac or H3K27me3.
We first examined whether inhibiting HDAC1,2 activity induced any change in global H3K27ac or H3K27me3 on chromatin following DNA damage and during DNA repair. SUDHL4 or Karpas-422 cells with or without exposure to ionizing radiation (IR) were initially treated with DMSO or ACY-957 for 48 hr. Chromatin extracts were prepared from these cells following a 30 min recovery period (the repair phase) and changes in histone modifications were examined by Western blotting.

[4] = system: SUDHL4 and Karpas-422 cells; experiment: γH2AX foci formation by immunofluorescence; assay type: cell-based, human; conditions: 48 h; 2 μM ACY-957, 0.5 μM DZNEP, 0.5 μM GSK126
Experimental: (§5) The percentage of cells with 6 or greater γH2AX foci were counted in three independent experiments and at least 100 cells were counted in each experiment. […] Histones were purified using trichloroacetic acid extraction protocol (see Example 1). Western blot analysis was done with anti-γH2AX and histone H2AX served as the loading control. […] Following DMSO or ACY957 treatment, cells were exposed to a 5Gy dose of ionizing radiation and allowed to recover for 30 minutes prior to chromatin extraction. Western blot analysis was done with anti-γH2AX where total histone H2AX served as a loading control. (D): Karpas-422 cells were micro-irradiated with laser and allowed to recover for 15 minutes before fixation and immunofluorescence staining with anti-γH2AX, anti-HDAC1 and anti-HDAC2 antibodies was done.
Immunofluorescence. Cells were fixed in either 10% formalin or methanol-acetone (1:1) for 10 min at −20*C. The cells were then permeabilized with 0.5% Triton-X-100 in PBS for 5 min at room temperature (RT), blocked in 10% normal goat serum (Sigma) for 30 min and stained with primary antibody for 1 h at RT. Cells were incubated with secondary antibody (anti-mouse or anti-rabbit IgG, Alexa Fluor 488/546) at a 1:600 dilution for 45 min at RT, and counterstained with Hoechst 33342 (Sigma) at 1:1000 dilution to visualize the nuclei. Images were captured using Zeiss Axioskop mot plus microscope with a 40× lens and analyzed using the AxioVision software.

[5] = system: SUDHL4 and Karpas-422 cells; experiment: Western blot of γH2AX on chromatin, with or without ionizing radiation; assay type: cell-based, human; conditions: 48 hr, Western
Experimental: as §5

[6] = system: Karpas-422 and SUDHL4 cells; experiment: Western blot of histone acetylation marks in whole cell lysates; conditions: 2 μM, 24 hours, vs DMSO
Experimental: Compounds were diluted in DMSO to 50 fold the final concentration and a ten point three fold dilution series was made. The compounds were diluted in assay buffer (50 mM HEPES, pH 7.4, 100 mM KCl, 0.001% Tween-20, 0.05% BSA, 20 μM tris(2-carboxyethyl)phosphine) to 6 fold their final concentration. The HDAC enzymes (purchased from BPS Biosciences) were diluted to 1.5 fold their final concentration in assay buffer. The tripeptide substrate (synthesized in house) and trypsin at 0.05 μM final concentration were diluted in assay buffer at 6 fold their final concentration. Five μl compounds and 20 μl of enzyme were added to wells of a black, opaque 384 well plate in duplicate. Enzyme and compound were incubated together at room temperature for 10 minutes. Five μl of substrate was added to each well, the plate was shaken for 60 seconds and placed into a Victor 2 microtiter plate reader. The development of fluorescence was monitored for 60 min and the linear rate of the reaction was calculated. The IC50 was determined using Graph Pad Prism by a four parameter curve fit.

[7] = system: Hdac1,2; experiment: in vitro enzyme assays, IC50 determination (FIG. 17A); assay type: biochemical
Experimental: (A). For IC50 determination, recombinant HDAC enzymes were treated with HDAC1,2 or HDAC3 inhibitors in in vitro HDAC assays. (B). Western blots for H3K23ac using extracts from Pre-B-ALL SupB15 cells treated with increasing dose of HDAC1,2 inhibitor (ACY1035). (C). Hdac1^FI/FI, 2^FI/FI cells were infected with Ad-Cre virus to delete HDAC1 and HDAC2 (HDAC1,2 null) or uninfected (WT). (D). Hdac3^FI/FI cells were either uninfected (WT) or infected with Ad-Cre virus to delete Hdac3. HDAC3-null cells were treated with DMSO or the HDAC1,2 selective inhibitor.
We have determined 2 μM (FIG. 17B) as the minimum dose for the ACY compounds, respectively, that when added to cells increased H3K23ac (a mark targeted by Hdac1,2 but not Hdac3).

[8] = system: SupB15 (Ph+PreB-ALL) cells; experiment: γH2AX immunofluorescence; assay type: cell-based, human; conditions: 2 μM, 48 hours
Experimental: SupB15 cells were treated with 2 μM ACY1035, ACY1071, ACY957, or solvent (DMSO) for 48 hours. (A) Immunofluorescence with γH2AX was performed on treated SupB15 cells. The number of γH2AX foci was counted in around 100 cells for each treatment and classified into cells with no foci, 1-5, 6-10, and greater than 10 foci. (B) SupB15 cells treated with DMSO or ACY1035 for 48 hours were tested via neutral comet assay to measure the amount of double-strand breaks (DSBs), indicated by the tail.
BCR-ABL promotes DNA repair to prevent DNA damage accumulation in Philadelphia chromosome-positive (Ph+) leukemia cells. To examine the effect of various HDAC1,2-selective inhibitors on DNA repair and DNA damage response in Pre-B-ALL cells that express BCR-ABL, SupB15 (Ph+PreB-ALL) cells were treated with 2 μM ACY1035 or 2 μM ACY1071 or 2 μM ACY957 for 48 hours.

[9] = system: Hdac1,2 or Hdac3 knockout cell lines; experiment: Western blot of H4K5ac in conditional Hdac1,2 or Hdac3 knockout cells; assay type: cell-based, mouse
Experimental: For IC50 determination, recombinant HDAC enzymes were treated with HDAC1,2 or HDAC3 inhibitors in in vitro HDAC assays. (B). Western blots for H3K23ac using extracts from Pre-B-ALL SupB15 cells treated with increasing dose of HDAC1,2 inhibitor (ACY1035). (C). Hdac1^FI/FI, 2^FI/FI cells were infected with Ad-Cre virus to delete HDAC1 and HDAC2 (HDAC1,2 null) or uninfected (WT). (D). Hdac3^FI/FI cells were either uninfected (WT) or infected with Ad-Cre virus to delete Hdac3.

[10] = system: Karpas-422 cells; conditions: publically available RNA seq data set of GSK126 treated cells; cited from earlier work

Structure (SMILES) | progression through the cell cycle [1] | cell cycle / sub-G1 (dead cells) ([1]; 48 h) | cell cycle / sub-G1 (dead cells) ([1]; 72 h) | progression through the cell cycle [2] | cell cycle / G1 arrest and sub-G1 [2] | global H3K27me3 levels [3] | cells with γH2AX foci [4] | also measured
Nc1nccc2c1ncn2C1C=C(CO)C(O)C1O (stereo not shown) [DZNep, reference compound] | did not affect their progression through the cell cycle | modest increase in the number of dead Karpas-422 cells | larger increase in the number of dead Karpas-422 cells | did not affect their progression through the cell cycle | modest increase in dead/sub-G1 SUDHL4 cells | without reducing global H3K27me3 levels | significant increase in the number of cells with greater than six γH2AX foci | chromatin associated γH2AX [5]: greater increase in γH2AX levels on chromatin compared to GSK126
O=C(CCCCCCC(=O)Nc1ccccc1)NO [SAHA, Vorinostat, reference compound] | – | – | – | – | – | – | – | H3K23ac levels [6]: increase in H3K23ac
Nc1ccc(-c2ccncc2)cc1NC(=O)c1ccc2c(c1)cc(C1CC1)n2CCN1CCOCC1 [ACY-1071, N-(2-amino-5-(pyridin-4-yl)phenyl)-2-cyclopropyl-1-(2-morpholinoethyl)-1H-indole-5-carboxamide] | – | – | – | – | – | – | – | inhibition of Hdac1,2 activities compared to Hdac3 (IC50 values) [7]: very selectively; DNA damage, quantitation of γH2AX foci [8]: statistically significant increase in DNA damage
Nc1ccccc1NC(=O)c1ccc(CNC(=O)OCc2cccnc2)cc1 [MS275, reference compound] | – | – | – | – | – | – | – | H4K5ac compared with deletion of Hdac1,2 [9]: greater increase in H4K5ac than the deletion of just Hdac1,2
CC[C@H](C)n1cc(C)c2c(C(=O)NCc3c(C)cc(C)[nH]c3=O)cc(-c3ccc(N4CCNCC4)nc3)cc21 [GSK126, reference compound] | did not affect their progression through the cell cycle | did not cause any change in the progression | did not result in any defect in the cell cycle progression and/or survival | did not affect their progression through the cell cycle | did not result in any defect in the cell cycle progression and/or survival | decrease in global H3K27me3 levels; also recorded: significant decrease in H3K27me3 | slight increase in γH2AX foci | incubation required to decrease the viability [1]: 7 days; cell cycle / G1 arrest ([2]; 48 h, 2 μM ACY-957, 0.5 μM GSK126): did not cause any change in the progression; BLIMP1 expression increase [10]: 2.4 fold
